The target of test [1] is T1, DOR (Homo sapiens, UniProt P41143). Put plainly: biochemical. The test is classed as binding.
A further test concerns the target KOR (Homo sapiens, UniProt P41145). Put plainly: biochemical. Format: binding.
Test [2] addresses T2, MOR (Homo sapiens, UniProt P35372). Put plainly: biochemical. Format: binding.
Test [3] addresses T1, DOR. Put plainly: biochemical. Format: binding. This is another data set of the same source.
The target in test [4] is T2, MOR. Put plainly: biochemical. Format: binding. This is another data set of the same source.
Test [5] deals with T3, NOP (Homo sapiens, UniProt P41146). The test is classed as cell-based.
For test [6], the system named is patients with post-operative pain. The settings on record: cited from earlier work; for analgesia in earlier clinical studies (in words): patients with post-operative pain, literature of the applicants.
The next test deals with T4, σ2 receptor (Homo sapiens, UniProt Q5BJF2).
T4 construct: MDS Pharma Services (contract laboratory that ran the assay)
Format: binding. Conditions: for inhibition at 10 µM: read-out: Inhibition (%) Sigma2 (σ2).

Test [7] has as its system patients with post-operative pain. Put plainly: Clinical studies of analgesia in patients with post-operative pain. Format: in vivo, human. Conditions: for sex difference in analgesia: women vs men, post-operative pain (FIG. 8, 9).
Test [8] addresses T3, NOP. The test is classed as binding. Also on record: MDS Pharma Services (contract laboratory that ran the assay). Conditions: for binding to the NOP receptor (in words): 10 μM; for inhibition at 10 µM: read-out: Inhibition (%) Nociceptin/orphanin F/Q (NOP).

“Also recorded” adds a separate entry of the source. Counter-ions that a name gives are not always drawn. Like-named read-outs stand apart in the source and are kept apart here.

T3 sequence (P41146 whole entry): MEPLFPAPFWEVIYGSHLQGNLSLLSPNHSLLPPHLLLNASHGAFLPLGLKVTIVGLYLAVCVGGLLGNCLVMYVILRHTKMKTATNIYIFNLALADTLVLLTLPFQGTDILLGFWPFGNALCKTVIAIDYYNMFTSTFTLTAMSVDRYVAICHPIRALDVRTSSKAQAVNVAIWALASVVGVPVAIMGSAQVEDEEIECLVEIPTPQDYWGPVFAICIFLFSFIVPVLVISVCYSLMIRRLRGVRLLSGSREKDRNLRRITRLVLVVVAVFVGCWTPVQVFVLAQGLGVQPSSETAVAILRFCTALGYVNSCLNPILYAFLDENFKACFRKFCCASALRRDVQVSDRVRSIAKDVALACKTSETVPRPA
T1 sequence (P41143 whole entry): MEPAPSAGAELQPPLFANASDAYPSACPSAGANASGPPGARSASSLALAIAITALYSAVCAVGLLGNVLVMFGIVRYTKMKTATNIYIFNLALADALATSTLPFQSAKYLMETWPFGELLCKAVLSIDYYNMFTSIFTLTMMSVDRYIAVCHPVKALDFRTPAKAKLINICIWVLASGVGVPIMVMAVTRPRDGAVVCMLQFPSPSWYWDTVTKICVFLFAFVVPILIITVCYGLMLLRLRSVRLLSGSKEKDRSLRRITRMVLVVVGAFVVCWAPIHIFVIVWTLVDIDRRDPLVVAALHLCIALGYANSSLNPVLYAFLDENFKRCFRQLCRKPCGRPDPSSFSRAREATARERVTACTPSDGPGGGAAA
T4 sequence (Q5BJF2 whole entry, species assumed): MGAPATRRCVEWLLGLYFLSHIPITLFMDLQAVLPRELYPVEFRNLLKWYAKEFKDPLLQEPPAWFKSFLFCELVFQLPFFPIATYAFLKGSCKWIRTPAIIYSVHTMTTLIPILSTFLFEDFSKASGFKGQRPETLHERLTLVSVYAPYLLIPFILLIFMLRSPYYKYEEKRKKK
T2 sequence (P35372 whole entry): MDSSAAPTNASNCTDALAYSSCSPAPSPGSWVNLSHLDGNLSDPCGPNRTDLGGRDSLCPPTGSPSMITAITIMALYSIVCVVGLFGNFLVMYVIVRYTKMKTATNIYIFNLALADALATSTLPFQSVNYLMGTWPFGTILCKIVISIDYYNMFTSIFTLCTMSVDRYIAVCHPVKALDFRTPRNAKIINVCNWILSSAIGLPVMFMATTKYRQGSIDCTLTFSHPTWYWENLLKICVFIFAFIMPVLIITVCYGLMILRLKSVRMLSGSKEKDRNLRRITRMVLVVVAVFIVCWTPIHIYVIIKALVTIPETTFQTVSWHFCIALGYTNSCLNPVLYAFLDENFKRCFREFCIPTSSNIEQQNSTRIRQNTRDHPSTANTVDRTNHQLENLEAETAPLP
KOR, sequence (P41145 whole entry): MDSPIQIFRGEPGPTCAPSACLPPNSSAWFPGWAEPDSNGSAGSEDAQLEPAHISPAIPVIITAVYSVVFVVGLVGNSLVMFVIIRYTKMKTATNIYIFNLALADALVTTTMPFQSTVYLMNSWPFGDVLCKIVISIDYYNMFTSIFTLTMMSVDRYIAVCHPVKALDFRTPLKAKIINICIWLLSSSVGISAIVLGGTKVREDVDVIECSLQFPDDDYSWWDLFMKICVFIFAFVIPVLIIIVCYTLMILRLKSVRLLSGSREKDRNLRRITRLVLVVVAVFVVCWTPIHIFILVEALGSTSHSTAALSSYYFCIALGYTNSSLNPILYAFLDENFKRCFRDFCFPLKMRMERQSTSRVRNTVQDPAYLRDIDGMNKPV

Compound `CN(C(=O)/C=C/c1ccoc1)[C@@H]1CCC2(O)C3Cc4ccc(O)c5c4[C@@]2(CCN3CC2CC2)[C@H]1O5` (some centres unmarked) [compound 27035, TRK-820 HCl] returned a DOR at DOR [1] of 95. Moreover, the inhibition at 10 µM at DOR [1] (read-out: DOR mean % inhibition) amounted to 95.3%; on KOR (read-out: KOR mean % inhibition) it was 90.5%; at MOR [2] (read-out: MOR mean % inhibition) it was 93.8%. Moreover, at KOR, the KOR came out at 91. Further, the MOR at MOR [2] was 94. The inhibition constant (Ki) at DOR [3] came out at 42 nM; on MOR [4] it was 1.1 nM. Also, the “NOP Tango Agonist” value at NOP [5] turned out to be 3.5.
Regarding `O=C(CCCN1CCC(O)(c2ccc(Cl)cc2)CC1)c1ccc(F)cc1` [haloperidol], in test [6], the “analgesia in earlier clinical studies (in words)” value (“analgesia … (in words)” for short) is recorded as “enhanced the analgesic effect of nalbuphine”.
As to `CN(C)CCCN1c2ccccc2Sc2ccc(Cl)cc21` [chlorpromazine], the “analgesia … (in words)” value in test [6] is recorded as “enhanced the analgesic effect of nalbuphine”.
Turning to `C=CCN1CC[C@]23c4c5ccc(O)c4O[C@H]2C(=O)CC[C@@]3(O)[C@H]1C5` [Naloxone, naloxone hydrochloride], the “binding to the σ2 receptor (in words)” value on σ2 receptor (10 μM) is “does not bind to the σ2 receptor”. In addition, the inhibition at 10 µM at σ2 receptor is -2%. Also, in test [7] (naloxone 0.4 mg in combination with nalbuphine, men (FIG. 10 left)), the “effect on nalbuphine anti-analgesia in males” value is listed as “abolished the anti-analgesic effect of nalbuphine in males resulting in significant analgesia”. Moreover, in test [7] (naloxone 0.4 mg in combination with nalbuphine, women (FIG. 10 right)), the “effect on nalbuphine analgesia in females” value is on record as “enhanced nalbuphine analgesia in females”. Also, the “analgesia … (in words)” value in test [6] was “blocks anti-analgesia and produces enhanced and prolonged analgesia”.
Turning to `CC(C)=CCN1CCC2(C)c3cc(O)ccc3CC1C2C.CC(O)C(=O)O` (centres unmarked) [Pentazocine, Pentazocine lactate], the inhibition at 10 µM on σ2 receptor came out at 81%. The “sex difference in analgesia” value in [7] is “significantly great analgesia in women than in men; also recorded: significant difference in analgesia experience by females and males”. Further, on NOP [8], the “binding to the NOP receptor (in words)” value is listed as “binds to NOP receptors” and the inhibition at 10 µM stood at 24%.
Consider `NCC(CC(=O)O)c1ccc(Cl)cc1` (centres unmarked) [baclofen], for which the “effect on the analgesic effect of pentazocine” value in test [6] (oral, from three days prior to surgery, pentazocine 30 mg i.v. (Gordon 1995)) is “not significantly different from that of placebo”.
As to `Oc1ccc2c3c1O[C@H]1[C@@H](O)CC[C@@]4(O)[C@@H](C2)N(CC2CCC2)CC[C@]314` [Nalbuphine, Nalbuphine hydrochloride], the inhibition at 10 µM on σ2 receptor was determined as 15%; at NOP [8], 12%. Moreover, the “sex difference in analgesia” value is “significantly greater analgesia in females than in males” in test [7] (hydrochloride) and “significantly great analgesia in women than in men” in test [7] (listed as nalbuphine, hydrochloride). In addition, in test [6] (men, placebo controlled study (Gear 1999)), the “time by which men reported increasing pain (anti-analgesia)” value is ~90 min. In addition, the “analgesia … (in words)” value in [6] is reported as “worse pain than those receiving placebo”. Further, the “binding to the NOP receptor (in words)” value at NOP [8] (hydrochloride) is “binds to NOP receptors”.
On to `Oc1ccc2c(c1)[C@@]13CCCC[C@@]1(O)[C@@H](C2)N(CC1CCC1)CC3` [Butorphanol], for which the “sex difference in analgesia” value in test [7] is given as “significantly great analgesia in women than in men; also recorded: significantly greater analgesia in females than in males”.

Source of the values: patent US10167295B2 (priority 2013, dated 2019).
